According to patent US20220127247A1, “N-(PYRIDIN-2-YL)PYRIDINE-SULFONAMIDE DERIVATIVES AND THEIR USE IN THE TREATMENT OF DISEASE” (NOVARTIS AG, priority 2019, published 2022):
pEC50: −log10 of the molar value.

Tests used:
delF508-CFTR [1] = target: T1, delF508-CFTR (Homo sapiens, UniProt P13569, DEL508-508); experiment: Measurement of delF508-CFTR-HRP surface expression in CFBE41o- cells; format: cell-based; settings: for pEC50: HRP-tagged delF508-CFTR in CFBE41o- cells, 24 h with compound, luminescence, 10-point curve, top 10 μM; for Emax: efficacy relative to reference compound 3-(6-(1-(2,2-difluorobenzo[d][1,3]dioxol-5-yl)cyclopropane-1-carboxamido)-3-methylpyridin-2-yl)benzoic acid, CFBE41o- cells, 24 h, read-out: DelF508-CFTR-HRP Amax %
T1 construct: expressed in transfected cells
Procedure, shortened: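 CFBE41o- cells stably expressing delF508-CFTR with HRP in the fourth extracellular loop, induced with 500 ng/mL doxycycline for 48 h, then treated with compound (top 10 μM, 10-point 3-fold) for 24 h at 37° C. Surface HRP detected by luminescence with cell-impermeant substrate; EC50 from logistic fit of triplicates, normalized to lowest concentration.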

delF508-CFTR [2] = target: T1, delF508-CFTR; experiment: delF508-CFTR functional activity in primary human bronchial epithelial cells (HBECs), Multi-Transepithelial Clamp Circuit (MTECC-24) assay; format: cell-based; settings: for pEC50: primary human delF508-CFTR bronchial epithelial cells, 24 h with compound, equivalent short circuit current (Ieq), forskolin plus potentiator, mean of at least two replicates, read-out: MTECC24-CFHBEC EC50; for MTECC24-CFHBEC Amax %: test compound added 24 h before assay, with potentiator (S)-3-amino-6-methoxy-N-(3,3,3-trifluoro-2-hydroxy-2-methylpropyl)-5-(trifluoromethyl)picolinamide, relative to 2 μM 3-(6-(1-(2,2-difluorobenzo[d][1,3]dioxol-5-yl)cyclopropane-1-carboxamido)-3-methylpyridin-2-yl)benzoic acid + 0.5 μM N-(2,4-di-tert-butyl-5-hydroxyphenyl)-4-oxo-1,4-dihydroquinoline-3-carboxamide
Procedure, shortened: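 Patient-derived delF508 HBECs, air/liquid-interface differentiated ~4 weeks, were compound-treated 24 hrs, then short-circuit current (Ieq) recorded at ~36.5° C in HEPES pH7.4 medium with sequential benzamil, forskolin, potentiator and bumetanide. Normalized to 0.1% DMSO; EC50, fold change and % Amax from curve fits.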

T1 sequence (P13569 with tags, fused parts or gaps DEL508-508): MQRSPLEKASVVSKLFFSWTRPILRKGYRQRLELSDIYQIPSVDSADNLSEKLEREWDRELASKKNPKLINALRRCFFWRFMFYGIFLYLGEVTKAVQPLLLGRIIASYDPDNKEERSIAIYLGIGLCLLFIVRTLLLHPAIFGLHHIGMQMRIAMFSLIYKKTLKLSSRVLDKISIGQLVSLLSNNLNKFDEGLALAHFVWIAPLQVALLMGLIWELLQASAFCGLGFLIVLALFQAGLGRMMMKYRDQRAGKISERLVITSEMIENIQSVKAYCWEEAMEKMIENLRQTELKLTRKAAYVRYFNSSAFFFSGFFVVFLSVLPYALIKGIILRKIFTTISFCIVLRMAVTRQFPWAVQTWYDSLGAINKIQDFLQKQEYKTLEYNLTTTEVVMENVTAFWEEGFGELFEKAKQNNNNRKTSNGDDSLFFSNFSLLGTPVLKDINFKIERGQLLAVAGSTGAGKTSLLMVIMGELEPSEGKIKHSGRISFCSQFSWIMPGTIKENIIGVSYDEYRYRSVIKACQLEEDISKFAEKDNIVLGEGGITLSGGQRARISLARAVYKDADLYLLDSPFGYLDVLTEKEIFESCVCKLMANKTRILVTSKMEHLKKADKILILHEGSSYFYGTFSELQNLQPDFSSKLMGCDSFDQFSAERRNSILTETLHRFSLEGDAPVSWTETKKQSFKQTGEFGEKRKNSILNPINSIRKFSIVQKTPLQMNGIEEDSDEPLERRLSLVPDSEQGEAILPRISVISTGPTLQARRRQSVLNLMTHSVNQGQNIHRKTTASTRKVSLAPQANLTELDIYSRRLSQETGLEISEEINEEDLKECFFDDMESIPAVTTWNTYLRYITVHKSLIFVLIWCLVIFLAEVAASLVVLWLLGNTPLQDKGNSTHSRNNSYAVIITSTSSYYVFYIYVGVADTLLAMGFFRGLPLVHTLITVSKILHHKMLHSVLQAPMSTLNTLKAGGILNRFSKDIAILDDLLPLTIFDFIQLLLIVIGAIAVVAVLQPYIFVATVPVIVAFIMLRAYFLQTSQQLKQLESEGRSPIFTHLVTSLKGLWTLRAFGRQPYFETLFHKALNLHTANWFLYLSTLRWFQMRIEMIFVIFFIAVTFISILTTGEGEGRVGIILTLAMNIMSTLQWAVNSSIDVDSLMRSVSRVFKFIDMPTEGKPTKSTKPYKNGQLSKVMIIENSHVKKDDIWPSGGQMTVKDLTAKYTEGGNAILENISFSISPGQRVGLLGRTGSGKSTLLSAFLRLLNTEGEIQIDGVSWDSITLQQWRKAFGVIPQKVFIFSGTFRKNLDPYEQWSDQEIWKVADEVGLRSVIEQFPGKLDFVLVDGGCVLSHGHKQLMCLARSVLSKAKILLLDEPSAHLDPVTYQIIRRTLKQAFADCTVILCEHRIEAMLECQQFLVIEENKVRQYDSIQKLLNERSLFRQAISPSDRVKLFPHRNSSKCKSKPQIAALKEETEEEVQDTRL

Structure (SMILES) | pEC50 (delF508-CFTR [1]) | pEC50 (delF508-CFTR [2]) | MTECC24-CFHBEC Amax % (delF508-CFTR [2]) [%] | Emax (delF508-CFTR [1]) [%]
Cc1ccc(F)cc1-c1nc(NS(=O)(=O)c2cccc(N(CCC(=O)O)CC(C)C)n2)ccc1C(F)(F)F [Compound 126, 3-((6-(N-(6-(5-fluoro-2-methylphenyl)-5-(trifluoromethyl)pyridin-2-yl)sulfamoyl)pyridin-2-yl)(isobutyl)amino)propanoic Acid] | 6.01 | 7.85 | 207 | 
Cc1ccc(F)cc1-c1nc(NS(=O)(=O)c2cccc(N(CCCC(=O)O)CC(C)C)n2)ccc1C(F)(F)F [Compound 127, 4-((6-(N-(6-(5-fluoro-2-methylphenyl)-5-(trifluoromethyl)pyridin-2-yl)sulfamoyl)pyridin-2-yl)(isobutyl)amino)butanoic Acid] | 6.14 | 7.68 | 247 | 
Cc1ccccc1-c1nc(NS(=O)(=O)c2cccc(N(CCC(=O)O)CC(C)C)n2)ccc1C(F)(F)F [Compound 128, 3-(isobutyl(6-(N-(6-(o-tolyl)-5-(trifluoromethyl)pyridin-2-yl)sulfamoyl)pyridin-2-yl)amino)propanoic Acid] | 5.95 | 7.51 | 277 | 
Cc1ccccc1-c1nc(NS(=O)(=O)c2cccc(N(CCCC(=O)O)CC(C)C)n2)ccc1C(F)(F)F [Compound 129, 4-(isobutyl(6-(N-(6-(o-tolyl)-5-(trifluoromethyl)pyridin-2-yl)sulfamoyl)pyridin-2-yl)amino)butanoic Acid] | 5.97 | 6.81 | 83 | 
CCCN(CCCC(=O)O)c1cccc(S(=O)(=O)Nc2ccc(C(F)(F)F)c(-c3cc(F)ccc3C)n2)n1 [Compound 131, 4-((6-(N-(6-(5-fluoro-2-methylphenyl)-5-(trifluoromethyl)pyridin-2-yl)sulfamoyl)pyridin-2-yl)(propyl)amino)butanoic Acid] | 5.86 | 6.49 | 95 | 
CCCN(CCCC(=O)O)c1cccc(S(=O)(=O)Nc2ccc(C(F)(F)F)c(-c3ccccc3C)n2)n1 [Compound 132, 4-(propyl(6-(N-(6-(o-tolyl)-5-(trifluoromethyl)pyridin-2-yl)sulfamoyl)pyridin-2-yl)amino)butanoic Acid] | 5.80 | 7.02 | 232 | 
Cc1ccccc1-c1nc(NS(=O)(=O)c2cccc(N(C)CC3(C(=O)O)CCOCC3)n2)ccc1C(F)(F)F [Compound 133, 4-((methyl(6-(N-(6-(o-tolyl)-5-(trifluoromethyl)pyridin-2-yl)sulfamoyl)pyridin-2-yl)amino)methyl)tetrahydro-2H-pyran-4-carboxylic Acid] | 5.72 | 6.05 | 108 | 547
Cc1ccccc1-c1nc(NS(=O)(=O)c2cccc(N(CCCC(=O)O)CCC(F)(F)F)n2)ccc1C(F)(F)F [Compound 134, 4-((6-(N-(6-(o-tolyl)-5-(trifluoromethyl)pyridin-2-yl)sulfamoyl)pyridin-2-yl)(3,3,3-trifluoropropyl)amino)butanoic Acid] | 5.86 | 6.94 | 189 | 
Cc1ccc(F)cc1-c1nc(NS(=O)(=O)c2cccc(N(CCC(=O)O)C(C)C)n2)ccc1C(F)(F)F [Compound 135, 3-((6-(N-(6-(5-fluoro-2-methylphenyl)-5-(trifluoromethyl)pyridin-2-yl)sulfamoyl)pyridin-2-yl)(isopropyl)amino)propanoic Acid] | 5.80 | 7.19 | 292 | 
CCCN(CCC(=O)O)c1cccc(S(=O)(=O)Nc2ccc(C(F)(F)F)c(-c3ccccc3C)n2)n1 [Compound 148, 3-(propyl(6-(N-(6-(o-tolyl)-5-(trifluoromethyl)pyridin-2-yl)sulfamoyl)pyridin-2-yl)amino)propanoic Acid] | 5.84 | 6.75 | 247 | 
CCCN(CCC(=O)O)c1cccc(S(=O)(=O)Nc2ccc(C(F)(F)F)c(-c3cc(F)ccc3C)n2)n1 [Compound 149, 3-((6-(N-(6-(5-fluoro-2-methylphenyl)-5-(trifluoromethyl)pyridin-2-yl)sulfamoyl)pyridin-2-yl)(propyl)amino)propanoic Acid] | 5.83 | 7.06 | 133 | 
CCCN(CCCC(=O)O)c1cccc(S(=O)(=O)Nc2ccc(Cl)c(-c3ccccc3C)n2)n1 [Compound 156, 4-((6-(N-(5-chloro-6-(o-tolyl)pyridin-2-yl)sulfamoyl)pyridin-2-yl)(propyl)amino)butanoic Acid] | 6.04 | 6.64 | 158 | 549
CCCN(CCCC(=O)O)c1cccc(S(=O)(=O)Nc2ccc(Cl)c(-c3c(C)cccc3C)n2)n1 [Compound 157, 4-((6-(N-(5-chloro-6-(2,6-dimethylphenyl)pyridin-2-yl)sulfamoyl)pyridin-2-yl)(propyl)amino)butanoic Acid] | 6.11 | 6.23 | 59 | 589
